Holding throughout (format): cell-based
The subject of one test is KU1919.1. Put plainly: Cell Titer Glo (CTG) proliferation assay, KU1919. The settings on record: KU1919.1 cells, 72.0 hrs., read-out: AVE CTG Proliferation KU1919.1 72.0 hrs. Summed up: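 After overnight seeding at 37 °C, 5% CO2, cells were exposed to compound for 3 days. Viability read by CellTiter-Glo luminescence after 30 min at room temperature.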
The subject of another test is MDAMB231.1. Briefly: Cell Titer Glo (CTG) proliferation assay, MDA-MB-231. The settings on record: MDAMB231.1 cells, 72 hrs., read-out: AVE CTG Proliferation MDAMB231.1 72 hrs. Here is the method: (§1) Seed cells in 40 μL of cell culture media into each well of 384-well cell culture plate, spin them at room temperature at 1,000 RPM for 1 minute and then transfer the plates into 37° C. 5% CO2 incubator overnight. Next day, treat cells with 40 nL of diluted compound and return to incubator. After compound treatment for 3 days, Add 30 μL of CellTiter-Glo reagent (Promega) into each well to be detected. Then place the plates at room temperature for 30 min followed by reading on EnVision. Inhibition activity calculated as % DMSO=100×(LumSample-Lum low control)/(Lum high control-Lum low control) where high control is from cells treated with 0.1% DMSO and Low control obtained from PBS only. Use XLFit (equation 201) to calculate IC50 (A+ ((B−A)/(1[…]((x/C)^D)))) where A: Bottom, B: Top, C: IC50, D: Slope.

The next test concerns MDAMB468.1. Briefly: Cell Titer Glo (CTG) proliferation assay, MDA-MB-468. The settings on record: MDAMB468.1 cells, 72.0 hrs., read-out: AVE CTG Proliferation MDAMB468.1 72.0 hrs. As for the experimental part:
as §1

Results on 21 molecules are retold here after patent publication US20250171465A1, “AKT INHIBITORS” (Stablix, Inc., priority 2023, published 2025).

pIC50: −log10 of the molar value. Where two headings read alike, the source gives them in different places.

`NC1(C(=O)N[C@@H](CCO)c2ccc(Cl)cc2)CCN(c2nc[nH]c3nccc2-3)CC1` [AZD-5363, Capivasertib, reference compound]: the pIC50 in the test on KU1919.1, in the test on MDAMB231.1 and in the test on MDAMB468.1 was below 5.00 each time.

As to `CCOc1cc(OC)ccc1CNCC(=O)N1CCCC(c2cccc(C(=O)N[C@@H](C(=O)N3CCN(CC4CCN(CC(=O)NCCNC[C@@H](C(=O)N5CCN(c6ncnc7c6[C@H](C)C[C@H]7O)CC5)c5ccc(Cl)cc5)CC4)CC3)C3CCCCC3)c2)C1` (stereo partly shown) [Compound I-17], the pIC50 in the test on KU1919.1 (Homo sapiens, KU-19-19) was 5.30 to 6.00; in the test on MDAMB231.1 (Homo sapiens, MDA-MB-231), 5.30 to 6.00; in the test on MDAMB468.1 (Homo sapiens, MDA-MB-468) it was 5.30 to 6.00.

For `CCc1cccc(-c2cnc(C(=O)N3CCC(OC4CCN(CC(=O)NCCNC[C@@H](C(=O)N5CCN(c6ncnc7c6[C@H](C)C[C@H]7O)CC5)c5ccc(Cl)cc5)CC4)CC3)c(NC(C)=O)c2)c1` [Compound I-196], the pIC50 in the test with KU1919.1 (Homo sapiens, KU-19-19) is 5.30 to 6.00; in the test with MDAMB231.1 (Homo sapiens, MDA-MB-231) it was 5.00 to 5.30; in the test on MDAMB468.1 (Homo sapiens, MDA-MB-468) it was 5.00 to 5.30.

On to `C[C@@H]1C[C@@H](O)c2ncnc(N3CCN(C(=O)C(CN4CCC(CN5CCN(C(=O)[C@H](NC(=O)c6cccc([C@H]7CCCN(C(=O)CNCc8ccc(F)cc8F)C7)c6)C6CCCCC6)CC5)CC4)c4ccc(Cl)cc4)CC3)c21` (stereo partly shown) [Compound I-201], for which the pIC50 is 6.00 to 6.30 in the test on KU1919.1 (Homo sapiens, KU-19-19); 5.30 to 6.00 with MDAMB231.1 (Homo sapiens, MDA-MB-231); 5.30 to 6.00 with MDAMB468.1 (Homo sapiens, MDA-MB-468).

Regarding `C[C@@H]1C[C@@H](O)c2ncnc(N3CCN(C(=O)[C@H](CNCCNC(=O)CN4CCC(CN5CCN(C(=O)[C@H](NC(=O)c6cccc(C7CCCN(C(=O)CNCc8ccc(F)cc8F)C7)c6)C6CCCCC6)CC5)CC4)c4ccc(Cl)cc4)CC3)c21` (stereo partly shown) [Compound I-204], the pIC50 in the test with KU1919.1 (Homo sapiens, KU-19-19) is 5.30 to 6.00; with MDAMB231.1 (Homo sapiens, MDA-MB-231), 5.30 to 6.00; with MDAMB468.1 (Homo sapiens, MDA-MB-468), 5.30 to 6.00.

`C[C@@H]1C[C@@H](O)c2ncnc(N3CCN(C(=O)[C@H](CNCCNC(=O)CN4CCC(CN5CCN(C(=O)c6cccc(C7CCCN(C(=O)CNC8CC8)C7)c6)CC5)CC4)c4ccc(Cl)cc4)CC3)c21` (stereo partly shown) [Compound I-206]: the pIC50 with KU1919.1 (Homo sapiens, KU-19-19) is below 5.00; in the test with MDAMB231.1 (Homo sapiens, MDA-MB-231), below 5.00; with MDAMB468.1 (Homo sapiens, MDA-MB-468), below 5.00.

On to `C[C@@H]1C[C@@H](O)c2ncnc(N3CCN(C(=O)[C@H](CNCCNC(=O)CN4CCC(CN5CCN(C(=O)c6cccc(C7CCCN(C(=O)CNCc8ccc(F)cc8F)C7)c6)CC5)CC4)c4ccc(Cl)cc4)CC3)c21` (stereo partly shown) [Compound I-207], for which the pIC50 in the test with KU1919.1 (Homo sapiens, KU-19-19) is below 5.00; in the test on MDAMB231.1 (Homo sapiens, MDA-MB-231) it was below 5.00; in the test on MDAMB468.1 (Homo sapiens, MDA-MB-468), below 5.00.

As for `C[C@@H]1C[C@@H](O)c2ncnc(N3CCN(C(=O)[C@H](CNCCNC(=O)CN4CCC(OC5CCN(C(=O)[C@H](NC(=O)c6cccc(C7CCCN(C(=O)CNCc8ccc(F)cc8F)C7)c6)C6CCCCC6)CC5)CC4)c4ccc(Cl)cc4)CC3)c21` (stereo partly shown) [Compound I-208], the pIC50 in the test on KU1919.1 (Homo sapiens, KU-19-19) is 5.30 to 6.00; in the test on MDAMB231.1 (Homo sapiens, MDA-MB-231), 5.30 to 6.00; in the test with MDAMB468.1 (Homo sapiens, MDA-MB-468) it was 5.30 to 6.00.

Regarding `C[C@@H]1C[C@@H](O)c2ncnc(N3CCN(C(=O)[C@H](CNCCNC(=O)CN4CCC(OC5CCN(C(=O)[C@H](NC(=O)c6cccc(C7CCCN(C(=O)CNC8CC8)C7)c6)C6CCCCC6)CC5)CC4)c4ccc(Cl)cc4)CC3)c21` (stereo partly shown) [Compound I-209], the pIC50 with KU1919.1 (Homo sapiens, KU-19-19) was 5.00 to 5.30; in the test with MDAMB231.1 (Homo sapiens, MDA-MB-231) it was 5.00 to 5.30; with MDAMB468.1 (Homo sapiens, MDA-MB-468), 5.00 to 5.30.

As to `C[C@@H]1C[C@@H](O)c2ncnc(N3CCN(C(=O)C(CN4CCC(CN5CCN(C(=O)[C@H](NC(=O)c6cccc([C@H]7CCCN(C(=O)CNC8CC8)C7)c6)C6CCCCC6)CC5)CC4)c4ccc(Cl)cc4)CC3)c21` (stereo partly shown) [Compound I-211], the pIC50 is 6.00 to 6.30 in the test with KU1919.1 (Homo sapiens, KU-19-19); 5.30 to 6.00 with MDAMB231.1 (Homo sapiens, MDA-MB-231); 5.30 to 6.00 in the test with MDAMB468.1 (Homo sapiens, MDA-MB-468).

For `CCc1cccc(-c2cnc(C(=O)N3CCN(CC4CCN(CC(=O)NCCNC[C@@H](C(=O)N5CCN(c6ncnc7c6[C@H](C)C[C@H]7O)CC5)c5ccc(Cl)cc5)CC4)CC3)c(N)c2)c1` [Compound I-213], the pIC50 with KU1919.1 (Homo sapiens, KU-19-19) was 5.30 to 6.00; in the test on MDAMB231.1 (Homo sapiens, MDA-MB-231), 5.30 to 6.00; in the test on MDAMB468.1 (Homo sapiens, MDA-MB-468), 5.30 to 6.00.

For the molecule `CCOc1cc(OC)ccc1CNCC(=O)N1CCC[C@H](c2cccc(C(=O)N[C@@H](C(=O)N3CCN(CC4CCN(CC(C(=O)N5CCN(c6ncnc7c6[C@H](C)C[C@H]7O)CC5)c5ccc(Cl)cc5)CC4)CC3)C3CCCCC3)c2)C1` (stereo partly shown) [Compound I-219], the pIC50 with KU1919.1 (Homo sapiens, KU-19-19) was 6.00 to 6.30; in the test with MDAMB231.1 (Homo sapiens, MDA-MB-231) it was 5.30 to 6.00; in the test with MDAMB468.1 (Homo sapiens, MDA-MB-468) it was 5.30 to 6.00.

As for `NC1(C(=O)N[C@@H](CCN2CCN(C(=O)CN3CCC(OC4CCN(C(=O)[C@H](NC(=O)c5cc(C6CCCN(C(=O)C7CC7)C6)ccc5F)C5CCCCC5)CC4)CC3)CC2)c2ccc(Cl)cc2)CCN(c2ncnc3[nH]ccc23)CC1` (stereo partly shown) [Compound I-224], the pIC50 was 5.30 to 6.00 with KU1919.1 (Homo sapiens, KU-19-19); 5.30 to 6.00 in the test on MDAMB231.1 (Homo sapiens, MDA-MB-231); 5.30 to 6.00 with MDAMB468.1 (Homo sapiens, MDA-MB-468).

For the molecule `NC1(C(=O)N[C@@H](CCN2CCN(C(=O)CN3CCC(OC4CCN(C(=O)[C@H](NC(=O)c5cc(C6CN(C(=O)CNCc7ccc(F)cc7F)C6)ccc5F)C5CCCCC5)CC4)CC3)CC2)c2ccc(Cl)cc2)CCN(c2ncnc3[nH]ccc23)CC1` [Compound I-226], the pIC50 was 6.00 to 6.30 with KU1919.1 (Homo sapiens, KU-19-19); 5.30 to 6.00 with MDAMB231.1 (Homo sapiens, MDA-MB-231); 5.30 to 6.00 in the test with MDAMB468.1 (Homo sapiens, MDA-MB-468).

Turning to `NC1(C(=O)N[C@@H](CCN2CCN(C(=O)CN3CCC(OC4CCN(C(=O)[C@H](NC(=O)c5cc(C6CN(C(=O)C7CC7)C6)ccc5F)C5CCCCC5)CC4)CC3)CC2)c2ccc(Cl)cc2)CCN(c2ncnc3[nH]ccc23)CC1` [Compound I-227], the pIC50 with KU1919.1 (Homo sapiens, KU-19-19) is 5.30 to 6.00; with MDAMB231.1 (Homo sapiens, MDA-MB-231), 5.30 to 6.00; with MDAMB468.1 (Homo sapiens, MDA-MB-468) it was 5.30 to 6.00.

In the case of `NC1(C(=O)N[C@@H](CCN2CCN(C(=O)CN3CCC(OC4CCN(C(=O)[C@H](NC(=O)c5ccc(C6CN(C(=O)CNCc7ccc(F)cc7F)C6)cc5)C5CCCCC5)CC4)CC3)CC2)c2ccc(Cl)cc2)CCN(c2ncnc3[nH]ccc23)CC1` [Compound I-230], the pIC50 with KU1919.1 (Homo sapiens, KU-19-19) was 5.30 to 6.00; in the test on MDAMB231.1 (Homo sapiens, MDA-MB-231) it was 5.30 to 6.00; in the test on MDAMB468.1 (Homo sapiens, MDA-MB-468), 5.30 to 6.00.

With `N[C@@H](C(=O)N1CCC(OC2CCN(CC(=O)N3CCN(CC[C@H](NC(=O)C4(N)CCN(c5ncnc6[nH]ccc56)CC4)c4ccc(Cl)cc4)CC3)CC2)CC1)C1CCCCC1` [Compound I-235], the pIC50 is below 5.00 in the test with KU1919.1 (Homo sapiens, KU-19-19); below 5.00 in the test on MDAMB231.1 (Homo sapiens, MDA-MB-231); below 5.00 in the test with MDAMB468.1 (Homo sapiens, MDA-MB-468).

Consider `NC1(C(=O)N[C@@H](CCN2CCN(C(=O)CN3CCC(OC4CCN(C(=O)[C@H](NC(=O)c5cccc(C6CN(C(=O)C7CC7)C6)c5)C5CCCCC5)CC4)CC3)CC2)c2ccc(Cl)cc2)CCN(c2ncnc3[nH]ccc23)CC1` [Compound I-240], for which the pIC50 in the test on KU1919.1 (Homo sapiens, KU-19-19) was 5.30 to 6.00; with MDAMB231.1 (Homo sapiens, MDA-MB-231), 5.30 to 6.00; with MDAMB468.1 (Homo sapiens, MDA-MB-468), 5.30 to 6.00.

For `NC1(C(=O)N[C@@H](CCN2CCN(C(=O)CN3CCC(OC4CCN(C(=O)[C@H](NC(=O)c5cccc(C6CN(C(=O)CNC7CC7)C6)c5)C5CCCCC5)CC4)CC3)CC2)c2ccc(Cl)cc2)CCN(c2ncnc3[nH]ccc23)CC1` [Compound I-241], the pIC50 is 5.30 to 6.00 in the test with KU1919.1 (Homo sapiens, KU-19-19); 5.00 to 5.30 with MDAMB231.1 (Homo sapiens, MDA-MB-231); 5.30 to 6.00 in the test on MDAMB468.1 (Homo sapiens, MDA-MB-468).

`CCc1cccc(-c2cnc(C(=O)N3CCC(OC4CCN(CC(=O)NCCNC[C@@H](C(=O)N5CCN(c6ccnc7c6[C@H](C)C[C@H]7O)CC5)c5ccc(Cl)cc5)CC4)CC3)c(NC(=O)OC(C)(C)C)c2)c1` [Compound I-304]: the pIC50 in the test on KU1919.1 (Homo sapiens, KU-19-19) is 5.30 to 6.00; in the test with MDAMB468.1 (Homo sapiens, MDA-MB-468), 5.30 to 6.00.

In the case of `C[C@@H]1C[C@@H](O)c2ncnc(N3CCN(C(=O)[C@H](CNCCNC(=O)CN4CCC(CN5CCNCC5)CC4)c4ccc(Cl)cc4)CC3)c21` [Compound I-328], the pIC50 was below 5.00 in the test on KU1919.1 (Homo sapiens, KU-19-19) and below 5.00 in the test on MDAMB468.1 (Homo sapiens, MDA-MB-468).
